Experimental data taken from paper PMC6100075, “Correlation between the Potency of Flavonoids on Mushroom Tyrosinase Inhibitory Activity and Melanin Synthesis in Melanocytes” (Molecules : A Journal of Synthetic Chemistry and Natural …, 2018).
Read-outs that look alike come from different tables or passages of the source.

Experiments:
mushroom tyrosinase [1] = conditions: cited from earlier work
mushroom tyrosinase [2] = target: mushroom tyrosinase (Agaricus bisporus, UniProt C7FF04); assay: Mushroom tyrosinase inhibitory assay (o-diphenolase activity, L-DOPA as substrate); format: biochemical; conditions: for inhibition at 200 µM: read-out: Mushroom Tyrosinase Inhibition % Inhibition (at 200 μM);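 for all read-outs here: enzyme and test sample preincubated 10 min at 25 °C in pH 6.8 phosphate buffer, 50% DMSO vehicle as control, enzyme-free mixture as blank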
Chain of mushroom tyrosinase (Agaricus bisporus, UniProt C7FF04) (G1K3P4 entry or part of it): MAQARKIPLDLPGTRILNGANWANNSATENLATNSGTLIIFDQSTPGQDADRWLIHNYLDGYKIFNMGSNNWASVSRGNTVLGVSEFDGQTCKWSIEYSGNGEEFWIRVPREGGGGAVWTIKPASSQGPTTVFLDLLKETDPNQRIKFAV
Chain of mushroom tyrosinase (Agaricus bisporus, UniProt C7FF04) (C7FF04 2-392): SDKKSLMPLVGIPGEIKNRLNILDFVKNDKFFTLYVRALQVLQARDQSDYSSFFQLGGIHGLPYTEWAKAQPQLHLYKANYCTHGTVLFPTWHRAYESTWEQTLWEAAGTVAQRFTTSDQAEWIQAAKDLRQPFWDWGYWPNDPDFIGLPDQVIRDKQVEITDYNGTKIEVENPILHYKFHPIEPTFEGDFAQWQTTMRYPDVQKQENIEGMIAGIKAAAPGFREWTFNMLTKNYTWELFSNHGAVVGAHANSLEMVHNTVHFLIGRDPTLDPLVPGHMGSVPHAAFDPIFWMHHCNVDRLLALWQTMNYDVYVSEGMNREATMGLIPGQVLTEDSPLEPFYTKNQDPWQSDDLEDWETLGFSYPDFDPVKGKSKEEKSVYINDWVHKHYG

murine tyrosinase = target: T1, murine tyrosinase (Mus musculus, UniProt P11344); assay: Murine tyrosinase inhibitory assay (o-diphenolase activity, crude enzyme from B16-F10 melanoma cells); format: biochemical; conditions: 200 μM, L-DOPA substrate;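 note: crude tyrosinase taken from lysed, dialyzed B16-F10 cell extract, with the inhibition reaction incubated for 2 h at 37 °C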
T1 construct: The cells were lysed by vortex and incubated at 4 °C for 1 h to solubilize the tyrosinase enzyme; endogenous in cells; host or cells: B16-F10 melanoma cells (Triton X-100 lysate, dialyzed)
T1 sequence (P11344 19-533): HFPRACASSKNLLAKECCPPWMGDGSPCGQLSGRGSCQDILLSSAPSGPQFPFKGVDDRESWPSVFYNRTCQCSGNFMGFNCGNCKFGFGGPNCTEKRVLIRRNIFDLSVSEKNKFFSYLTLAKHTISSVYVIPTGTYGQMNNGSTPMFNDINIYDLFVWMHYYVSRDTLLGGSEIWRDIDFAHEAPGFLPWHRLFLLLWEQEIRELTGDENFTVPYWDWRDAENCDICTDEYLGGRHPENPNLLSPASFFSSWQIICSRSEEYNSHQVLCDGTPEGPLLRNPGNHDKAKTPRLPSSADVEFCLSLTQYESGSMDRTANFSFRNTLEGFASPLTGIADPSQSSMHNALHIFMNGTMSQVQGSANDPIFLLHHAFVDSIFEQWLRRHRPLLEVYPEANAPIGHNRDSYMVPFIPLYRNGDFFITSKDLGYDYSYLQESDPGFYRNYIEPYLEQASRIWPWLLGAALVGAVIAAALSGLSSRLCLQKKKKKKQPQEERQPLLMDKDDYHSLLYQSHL

B16-F10 melanoma cells [3] = assay: Total melanin content assay; format: cell-based, Mus musculus (mouse); conditions: for activity at 15 µM / activity at 30 µM: B16-F10, read-out: % Melanin Content; for activity at 15 µM / activity at 30 µM / % Melanin Content: 72 h, relative to control
Method: Mus musculus (mouse) melanoma cell line, B16-F10 (ATCC® Number: CRL-6475™, Manassas, VA, USA), was cultured in complete Dulbecco′s Modified Eagle′s Medium (DMEM, phenol red-free medium) containing 10% fetal bovine serum, 25 mM glucose, 4 mM L-glutamine, 1 mM sodium pyruvate, 10 μg/mL penicillin, and 10 μg/mL streptomycin, at 37 °C, with 5% carbon dioxide (CO2) in a humidified atmosphere.
The total melanin content, produced both extracellularly and intracellularly, was determined as follows: B16-F10 cells were seeded onto a 24-well plate at a concentration of 50,000 cells/0.5 mL/well and were incubated for 24 h, followed by treatment with either the test compounds or the control (0.5% DMSO), and then incubated for 72 h. For extraction, the total produced melanin and 0.5 mL of 2 N NaOH containing 20% DMSO were added directly to the cell culture medium, mixed by pipetting and then incubated at room temperature for 1 h. The lysed cell extract was centrifuged at 13,000× g for 5 min. Finally, the supernatant was transferred to a 96-well plate and the relative melanin content was detected at 405 nm using a micro plate reader. Kojic acid and oxyresveratrol were used as positive controls.

[4] = Cell viability assay (PrestoBlue resazurin); format: cell-based, Mus musculus (mouse); conditions: mouse, 72 h, relative to control, read-out: % Cell Viability;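 note: mouse B16-F10 melanoma cells exposed to test samples for 72 h, with viability read as fluorescence of resorufin formed when living cells reduce PrestoBlue resazurin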
B16-F10 melanoma cells [5] = assay: Cell viability assay (PrestoBlue resazurin); format: cell-based, Mus musculus (mouse);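 note: mouse B16-F10 melanoma cells exposed to test samples for 72 h, with viability read as fluorescence of resorufin formed when living cells reduce PrestoBlue resazurin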
tyrosinase = tested on: tyrosinase; set-up: method as in PMID 17295516; conditions: cited from earlier work
[6] = tested on: murine B16-F10 melanoma cells; set-up: method as in PMID 17873839, PMID 14717847, PMID 16794334, PMID 26656314; conditions: cited from earlier work
[7] = tested on: human melanoma cells (MMV II); set-up: method as in PMID 25248426; conditions: cited from earlier work
[8] = tested on: murine melan-a melanocytes; set-up: method as in PMID 19182387; conditions: cited from earlier work
[9] = read-out: monophenolase activity of mushroom tyrosinase IC50
[10] = read-out: Murine Tyrosinase Inhibition, % (at 200 μM)
[11] = 30 μM, 72 h, relative to control

Compound: COc1cc2c(=O)c(-c3ccc(O)cc3)coc2cc1O [glycitein, 6-methoxy-7,4′-dihydroxyisoflavone]
- IC50 (mushroom tyrosinase [1]; [9]): 237 µM

Compound: COc1cc(O)c(-c2coc3cc(O)cc(O)c3c2=O)cc1O [Compound 5, Khrinone B]
- inhibition at 200 µM (mushroom tyrosinase [2]; 200 μM, L-DOPA substrate): 72.7 ± 2.2%
- inhibition at 200 µM (murine tyrosinase; [10]): 10.1 ± 3%
- activity at 15 µM (B16-F10 melanoma cells [3]; Mus musculus, 15 μM): 84.1 ± 5.3%
- activity at 30 µM (B16-F10 melanoma cells [3]; Mus musculus, 30 μM): 34.7 ± 12.3%
- viability at 72 h, 15 µM ([4]; B16-F10 melanoma cells): 95.1 ± 5.4%
- viability at 72 h, 30 µM ([4]; B16-F10 melanoma cells): 60%
- % Cell Viability (B16-F10 melanoma cells [5]; [11]): 62.3 ± 15.1%

Compound: COc1ccc(C2COc3c(ccc(O)c3OC)C2)c(O)c1O [Compound 21, (3R,S)-3′-Hydroxy-8-methoxy vestitol]
- inhibition at 200 µM (mushroom tyrosinase [2]; 200 μM, L-DOPA substrate): 64.1 ± 1.3%
- inhibition at 200 µM (murine tyrosinase; [10]): 11.4 ± 2.5%
- activity at 15 µM (B16-F10 melanoma cells [3]; Mus musculus, 15 μM): 97 ± 6.3%
- activity at 30 µM (B16-F10 melanoma cells [3]; Mus musculus, 30 μM): 36.3 ± 0.1%
- viability at 72 h, 15 µM ([4]; B16-F10 melanoma cells): 102.9 ± 1%
- viability at 72 h, 30 µM ([4]; B16-F10 melanoma cells): 60%
- % Cell Viability (B16-F10 melanoma cells [5]; [11]): 62.4 ± 3.2%

Compound: O=c1c(-c2ccc(O)cc2)coc2c(O)c(O)cc(O)c12 [5,7,8,4′-tetrahydroxyisoflavone]
- inhibition of monophenolase and diphenolase activities of tyrosinase (in words) (tyrosinase): irreversibly inhibit

Compound: O=C1C[C@@H](c2ccc(O)cc2)Oc2cc(O)cc(O)c21 [naringenin]
- effect on melanogenesis (in words) [6]: stimulate melanogenesis

Compound: O=c1cc(-c2ccccc2)oc2cc(O)cc(O)c12 [chrysin]
- effect on melanogenesis (in words) [7]: melanogenesis-promoting actions

Compound: O=c1c(O)c(-c2ccc(O)cc2)oc2cc(O)cc(O)c12 [kaempferol]
- effect on melanogenesis (in words) [7]: melanogenesis-promoting actions

Compound: COc1cc(O)c2c(=O)c(O)c(-c3ccc(O)c(O)c3)oc2c1 [rhamnetin]
- effect on melanogenesis (in words) [7]: melanogenesis-promoting actions

Compound: COc1cc2c(cc1O)[C@@H]1COc3cc(O)ccc3[C@@H]1O2 [Compound 27, (6aR,11aR)-3,8-Dihydroxy-9-methoxy pterocarpan]
- inhibition at 200 µM (mushroom tyrosinase [2]; 200 μM, L-DOPA substrate): 84.6 ± 0.6%
- inhibition at 200 µM (murine tyrosinase; [10]): 29.2 ± 2.9%
- effect on melanin content (in words, Figure 1) (B16-F10 melanoma cells [3]; 30 μM): inhibitory effect of melanogenesis
- inhibition at 15 µM (B16-F10 melanoma cells [3]; Mus musculus, B16-F10, 15 μM, read-out: inhibition of melanogenesis): 59%
- activity at 15 µM (B16-F10 melanoma cells [3]; Mus musculus, 15 μM): 41.9 ± 0.4%
- activity at 30 µM (B16-F10 melanoma cells [3]; Mus musculus, 30 μM): 53.5 ± 0.4%
- viability at 72 h, 15 µM ([4]; B16-F10 melanoma cells): 106 ± 4.9%
- viability at 72 h, 30 µM ([4]; B16-F10 melanoma cells): 14%
- toxicity to B16-F10 cells (in words) (B16-F10 melanoma cells [5]; 15 μM): no toxicity
- % Cell Viability (B16-F10 melanoma cells [5]; [11]): 14.5 ± 0.9%

Compound: O=c1c(-c2ccc(O)cc2)coc2c(O)c(O)ccc12 [7,8,4′-trihydroxyisoflavone]
- inhibition of monophenolase and diphenolase activities of tyrosinase (in words) (tyrosinase): irreversibly inhibit

Compound: O=c1c(-c2ccc(O)cc2)coc2cc(O)c(O)cc12 [6,7,4′-trihydroxyisoflavone]
- IC50 (mushroom tyrosinase [1]; [9]): 9.2 µM

Compound: Alpinetin [Compound 26]
- Mushroom Tyrosinase Inhibition % Inhibition (at 200 μM) (mushroom tyrosinase [2]; 200 μM, L-DOPA substrate): 36.9 ± 0.5%
- IC50 (mushroom tyrosinase [2]; L-DOPA substrate, read-out: Mushroom Tyrosinase Inhibition IC50): 450 ± 48.5 µM
- Murine Tyrosinase Inhibition, % (at 200 μM), symbol (murine tyrosinase): - (no inhibition at 200 μM)
- % Melanin Content (B16-F10 melanoma cells [3]; 15 μM): 89.7 ± 0.4%
- % Melanin Content (B16-F10 melanoma cells [3]; 30 μM): 92.3 ± 1.6%
- % Cell Viability (B16-F10 melanoma cells [5]; 15 μM): 77.0 ± 12.7%
- % Cell Viability (B16-F10 melanoma cells [5]; 30 μM): 77.1 ± 10.2%

Compound: O=c1c(-c2ccc(O)cc2)coc2cc(O)ccc12 [daidzein, 7,4′-dihydroxyisoflavone]
- IC50 (mushroom tyrosinase [1]; [9]): 264 µM

Compound: COc1ccc([C@H]2COc3cc(O)ccc3C2=O)c(OC)c1 [Compound 14, (3S)-Sativanone]
- inhibition at 500 µM (mushroom tyrosinase [2]; 500 μM, L-DOPA substrate): 13%
- inhibition at 200 µM (murine tyrosinase; [10]): 9.5 ± 1.6%
- activity at 15 µM (B16-F10 melanoma cells [3]; Mus musculus, 15 μM): 124 ± 4.3%
- activity at 30 µM (B16-F10 melanoma cells [3]; Mus musculus, 30 μM): 128 ± 6%
- viability at 72 h, 15 µM ([4]; B16-F10 melanoma cells): 107 ± 10.6%
- viability at 72 h, 30 µM ([4]; B16-F10 melanoma cells): 60%
- % Cell Viability (B16-F10 melanoma cells [5]; [11]): 64.3 ± 23.7%

Compound: O=c1cc(-c2ccc(O)c(O)c2)oc2cc(O)cc(O)c12 [luteolin]
- effect on melanogenesis (in words) [7]: melanogenesis-promoting actions

Compound: COc1ccc(-c2coc3cc(O)ccc3c2=O)cc1O [Compound 2, Calycosin]
- inhibitory activity on mushroom tyrosinase (in words) (mushroom tyrosinase [2]; o-diphenolase, L-DOPA substrate): did not show inhibitory activity
- inhibition at 300 µM (mushroom tyrosinase [2]; read-out: Mushroom Tyrosinase Inhibition % Inhibition (at 300 μM)): 0%
- inhibition at 200 µM (murine tyrosinase; read-out: Murine Tyrosinase Inhibition, % (at 200 μM), symbol): < 0%
- activity at 15 µM (B16-F10 melanoma cells [3]; Mus musculus, 15 μM): 143 ± 8.2%
- activity at 30 µM (B16-F10 melanoma cells [3]; Mus musculus, 30 μM): 197 ± 6.4%
- viability at 72 h, 15 µM ([4]; B16-F10 melanoma cells): 99.1 ± 9.2%
- viability at 72 h, 30 µM ([4]; B16-F10 melanoma cells): 101 ± 1.9%
- IC50 (mushroom tyrosinase [1]; read-out: monophenolase inhibition of mushroom tyrosinase IC50): 38.4 µM
- effect on melanin biosynthesis (in words) [8]: reduced melanin biosynthesis

Compound: O=c1c(-c2ccc(O)cc2)coc2cc(O)cc(O)c12 [Compound 4, Genistein]
- behaviour as substrate of mushroom tyrosinase (in words) (mushroom tyrosinase [2]; pre-incubation with enzyme in absence of L-DOPA, coloured product at 475 nm): chromogenic substrate analogs
- inhibition at 200 µM (murine tyrosinase; [10]): 9.9 ± 3.1%
- effect on melanin content (in words, Figure 1) (B16-F10 melanoma cells [3]; 30 μM): increased the melanin content
- activity at 15 µM (B16-F10 melanoma cells [3]; Mus musculus, 15 μM): 165.1 ± 1.6%
- activity at 30 µM (B16-F10 melanoma cells [3]; Mus musculus, 30 μM): 192 ± 13.9%
- viability at 72 h, 15 µM [4]: 128 ± 3.5%
- viability at 72 h, 30 µM [4]: 93.8 ± 5.7%
- IC50 (mushroom tyrosinase [1]; [9]): 822 µM
- effect on melanogenesis (in words) [7]: melanogenesis-promoting actions

Compound: O=c1c(O)c(-c2ccc(O)c(O)c2)oc2cc(O)cc(O)c12 [quercetin]
- effect on melanogenesis (in words) [6]: stimulate melanogenesis
- effect on melanogenesis (in words) [7]: melanogenesis-promoting actions

Compound: O=c1cc(-c2ccc(O)cc2)oc2cc(O)cc(O)c12 [apigenin]
- effect on melanogenesis (in words) [7]: melanogenesis-promoting actions
